Test results as given in paper PMC6413339 (EBioMedicine, 2019).
Like-named read-outs stand apart in the source and are kept apart here.

Assays:
[1] = biological target: T1, Src (Homo sapiens, UniProt P12931); test: Cell-free kinase assay (Reaction Biology, ADP-Glo); type: biochemical; conditions: inhibitor 500 nM; 100 μM ATP; average of duplicate
T1 construct: purchased Invitrogen PR4336E
Description: (§1) Cell-free kinase activity assays were performed at Reaction Biology Corporation. Briefly, kinases were incubated with substrates, 100 μM ATP and a 3-fold serial dilution of compounds starting at 1 μM. DMSO was used as control. […] Experiments were performed in duplicates. The concentrations of kinases and substrates used in the assays are indicated on Table S1. Kinase activity was quantified using the ADP-Glo™ Kinase Assay System (Promega, Madison, WI) following the manufacturer's recommendations.

[2] = biological target: T2, FLT3 (Homo sapiens, UniProt P36888); test: Cell-free kinase assay, single dose (Reaction Biology, ADP-Glo); type: biochemical; conditions: inhibitor 500 nM; 100 μM ATP; average of duplicate
T2 construct: purchased Invitrogen PV3182
T2 sequence (P36888 564-993 limits assumed): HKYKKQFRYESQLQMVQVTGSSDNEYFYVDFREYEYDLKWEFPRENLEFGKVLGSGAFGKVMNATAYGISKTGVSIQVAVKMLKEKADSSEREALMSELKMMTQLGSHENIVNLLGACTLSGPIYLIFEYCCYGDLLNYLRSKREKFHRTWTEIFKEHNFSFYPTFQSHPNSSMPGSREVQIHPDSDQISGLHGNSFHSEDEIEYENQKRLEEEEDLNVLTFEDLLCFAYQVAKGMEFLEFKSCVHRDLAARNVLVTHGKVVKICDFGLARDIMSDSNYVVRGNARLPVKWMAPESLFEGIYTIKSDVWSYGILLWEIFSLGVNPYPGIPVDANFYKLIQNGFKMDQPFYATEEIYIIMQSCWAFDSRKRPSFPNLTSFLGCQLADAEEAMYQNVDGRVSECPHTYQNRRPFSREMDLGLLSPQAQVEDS
Description: as §1, with “Briefly, kinases were incubated with substrates, 100 μM ATP and a 3-fold serial dilution of compounds starting at 1 μM.” left out

[3] = tested on: MV4–11-luc cells; test: In vivo efficacy, orthotopic human AML model; conditions: 25 mg/kg i.p. three times a week (MWF); NSG or NRG mice
Description: The in vivo efficacy of compounds was assessed in an orthotopic human AML model in NSG (NOD scid gamma, NOD-scid IL2Rg^null) mice that were bred at University of Maryland Baltimore (mating pairs acquired from Jackson Laboratories; Maine). […]. Three days later, engraftment was assessed by imaging on a Xenogen IVIS-2 Imaging System (Alameda) after an intraperitoneal (IP) injection of 150 mg/kg luciferin. Mice were sorted into four or five groups (n = 5) so that mean intensity (i.e., disease burden) was equal. Dosing started on day of sorting. Compounds were dissolved in 85% PBS (pH 7.4) buffer containing 10% DMSO and 5% Cremophore. The vehicle (buffer without compounds) was used as control. Mice were injected 3 to 5 days per week via IP injection. Mice were weighed on day of dosing and imaged once per week. […]. All mice were housed in a 12-h light/dark cycle with access to food and water ad libitum. Studies were performed with Institutional Animal Care and Use Committee (UMB and Purdue University) approval.
[…]. Female mice were dosed daily for 5 days via intraperitoneal injection and then monitored for an additional week for weight loss, a sign of toxicity in mice. […] To evaluate the anti-leukemic efficacy in vivo, six-week-old female NSG or NRG mice were injected intravenously with FLT3-ITD expressing acute myeloid leukemia cells (MV4–11), expressing luciferase. […] Dosing (i.p) with the compounds was then started. The mice were dosed with 25 mg/kg of the compounds three times a week (MWF). […] […].

[4] = tested on: MOLM-14 (ITD, F691 L) cells; test: Antiproliferative activity (CellTitre-Blue, 72 h); type: cell-based, human
Description: (§2) Cells were seeded into 96-well tissue culture-treated plates at 2.0 × 10^4 cells/mL for up to 24 h. DMSO stock solutions of compounds were serially diluted first in DMSO and subsequently into RPMI before being added to the cell cultures in triplicates, with 10 μM being the highest tested concentration. The plates were incubated for 72 h as above. The CellTitre-Blue assay (Promega, Madison WI) was then added to the cultures and incubated a further 4 h before the fluorescence measured following the manufacturers recommendations. The fluorescence data from compounds were normalized to that DMSO and the resulting data fitted to a non-linear regression equation to obtain IC50 using GraphPad Prism 5.0 Software (La Jolla, CA, USA).

[5] = tested on: MV4–11 cells; test: Antiproliferative activity (CellTitre-Blue, 72 h); type: cell-based, human; conditions: for IC50: 72 h incubation, triplicates, read-out: IC50 (mean ±SD, nM) MV4–11
Description: as §2

[6] = tested on: MOLM-14 cells; test: Antiproliferative activity (CellTitre-Blue, 72 h); type: cell-based, human; conditions: 72 h incubation, triplicates, read-out: IC50 (mean ±SD, nM) MOLM-14
Description: as §2

[7] = tested on: MOLM-14 (ITD, D835Y) cells; test: Antiproliferative activity (CellTitre-Blue, 72 h); type: cell-based, human; conditions: 72 h incubation, triplicates, read-out: IC50 (mean ±SD, nM) MOLM-14 (ITD, D835Y)
Description: as §2

[8] = Homo sapiens, MOLM-14, 72 h, 72 h incubation, triplicates, read-out: IC50 (mean ±SD, nM) MOLM-14 (ITD, F691 L)

T1 sequence (P12931 whole entry): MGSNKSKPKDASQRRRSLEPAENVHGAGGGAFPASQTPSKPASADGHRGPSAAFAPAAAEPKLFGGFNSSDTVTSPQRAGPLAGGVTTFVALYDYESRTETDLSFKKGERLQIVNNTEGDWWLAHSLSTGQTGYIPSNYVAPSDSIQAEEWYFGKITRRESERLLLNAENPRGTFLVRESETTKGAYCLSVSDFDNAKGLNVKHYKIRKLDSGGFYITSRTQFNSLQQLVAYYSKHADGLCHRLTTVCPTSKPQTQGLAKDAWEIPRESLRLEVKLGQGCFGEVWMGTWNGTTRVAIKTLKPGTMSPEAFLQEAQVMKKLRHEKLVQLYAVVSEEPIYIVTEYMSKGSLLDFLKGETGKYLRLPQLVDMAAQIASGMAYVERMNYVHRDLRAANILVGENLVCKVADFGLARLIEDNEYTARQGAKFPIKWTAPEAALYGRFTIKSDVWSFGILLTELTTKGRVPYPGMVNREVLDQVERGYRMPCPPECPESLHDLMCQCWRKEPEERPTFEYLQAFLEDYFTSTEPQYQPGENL

SMILES | inhibition at 0.5 µM [1] [%] | inhibition at 0.5 µM [2] [%] | IC50 [4, 8] [nM] | IC50 ([6]; Homo sapiens, MOLM-14) [nM] | IC50 ([7]; Homo sapiens, MOLM-14, 72 h) [nM] | also measured
Cc1ncc(C(=O)Nc2ccc(CN3CCN(C)CC3)c(C(F)(F)F)c2)cc1C#Cc1c(N)ncc2ccccc12 [Compound 5] | 100 | 99 | 1.5 ± 0.1 | 2.8 ± 0.02 | 13 ± 0.4 | reduction in leukemia burden [3]: > 99%; IC50 ([5]; Homo sapiens, MV4-11, 72 h): 0.4 ± 0.004 nM
Cc1ccc(C(=O)Nc2ccc(CN3CCN(C)CC3)c(C(F)(F)F)c2)cc1C#Cc1c(N)ncc2ccc(Cl)cc12 [Compound 8] |  | 97 |  |  |  | IC50 ([5]; Homo sapiens, MV4-11, 72 h): ~0.5 nM
Cc1ccc(C(=O)Nc2ccc(CN3CCN(C)CC3)c(C(F)(F)F)c2)cc1C#Cc1cnc(N)c2ccccc12 [Compound 15] | 97 | 100 | ≤ 15 |  | ≤ 15 | 
COc1ccc2cnc(N)c(C#Cc3cc(C(=O)Nc4ccc(CN5CCN(C)CC5)c(C(F)(F)F)c4)cnc3C)c2c1 [Compound 18] |  |  |  |  |  | %Src inhibition [1]: 98%; %FLT3 inhibition [2]: 97%; IC50 ([4]; 72 h incubation, triplicates, read-out: IC50 (mean ±SD, nM) MOLM-14 (ITD, F691 L)): 1.1 ± 0.04 nM; IC50 ([4]; Table S2, superscript g, the values are: IC50): 1.1 nM; IC50 [5]: 0.2 ± 0.001 nM; IC50 MV4-11 ([5]; Table S2, superscript d, the values are: IC50): 0.2 nM; IC50 [6]: 0.2 ± 0.002 nM; IC50 [7]: 11.1 ± 0.08 nM
Cc1ccc(C(=O)Nc2ccc(CN3CCN(C)CC3)c(C(F)(F)F)c2)cc1C#Cc1cnc(N)c2ncccc12 [Compound 19] | 98 | 99 |  |  |  | 
Cc1ncc(C(=O)Nc2ccc(CN3CCN(C)CC3)c(C(F)(F)F)c2)cc1C#Cc1cnc(NC2CC2)c2ncccc12 [Compound 21] | 20 | 80 |  |  |  | 
Cc1ccc(C(=O)Nc2ccc(CN3CCN(C)CC3)c(C(F)(F)F)c2)cc1C#Cc1cncc2ccccc12 [Compound 22] | 100 | 98 |  |  |  | 
Cc1ncc(C(=O)Nc2ccc(CN3CCN(C)CC3)c(C(F)(F)F)c2)cc1C#Cc1cncc2ncccc12 [Compound 24] | 98 | 100 | 1.8 ± 0.08 | 0.2 ± 0.01 | 3 ± 0.3 | IC50 ([5]; Homo sapiens, MV4-11, 72 h): 0.2 ± 0.009 nM
CC1(COc2ccc3c(c2)ncn3-c2ccc3cccc(N4CCC(N)CC4)c3n2)COC1 [Crenolanib, reference compound] |  | 99 | 15.6 ± 0.4 | 4.5 ± 0.8 | 6.6 ± 0.03 | IC50 ([5]; Homo sapiens, MV4-11, 72 h): 3.1 ± 0.06 nM
CO[C@@H]1[C@H](N(C)C(=O)c2ccccc2)C[C@H]2O[C@]1(C)n1c3ccccc3c3c4c(c5c6ccccc6n2c5c31)C(=O)NC4 [Midostaurin, reference compound] |  |  |  | 16.1 ± 0.02 |  | 
Cc1ccc(C(=O)Nc2ccc(CN3CCN(C)CC3)c(C(F)(F)F)c2)cc1C#Cc1cnc2cccnn12 [Ponatinib, reference compound] |  |  |  | 0.5 ± 0.1 |  | IC50 ([4]; Homo sapiens, MOLM-14, 72 h incubation, triplicates, read-out: IC50 (mean ±SD, nM) MOLM-14 (ITD, F691 L)): 6.8 ± 0.03 nM; IC50 ([5]; Homo sapiens, MV4-11): 0.1 ± 0.001 nM; IC50 ([7]; Homo sapiens, MOLM-14): 52.6 ± 0.3 nM
CC(C)(C)c1cc(NC(=O)Nc2ccc(-c3cn4c(n3)sc3cc(OCCN5CCOCC5)ccc34)cc2)no1 [Quizartinib, reference compound] |  |  | 48.5 ± 0.6 | 0.5 ± 0.02 | 23 ± 0.5 | IC50 ([5]; Homo sapiens, MV4-11, 72 h): 0.4 ± 0.02 nM

Second part, led by results:

inhibition at 0.5 µM [1] [%] | inhibition at 0.5 µM [2] [%] | IC50 [4, 8] [nM] | IC50 ([6]; Homo sapiens, MOLM-14) [nM] | IC50 ([7]; Homo sapiens, MOLM-14, 72 h) [nM] | SMILES | also measured
99 | 96 |  |  |  | Cc1ccc(C(=O)Nc2ccc(CN3CCN(C)CC3)c(C(F)(F)F)c2)cc1C#Cc1cccnc1N [Compound 1] | 
99 | 99 |  |  |  | Cc1ccc(C(=O)Nc2ccc(CN3CCN(C)CC3)c(C(F)(F)F)c2)cc1C#Cc1ccc(N)nc1 [Compound 2] | 
99 | 81 |  |  |  | Cc1ccc(C(=O)Nc2ccc(CN3CCN(C)CC3)c(C(F)(F)F)c2)cc1C#Cc1nc(Br)cnc1N [Compound 3] | 
100 | 93 |  |  |  | Cc1ccc(C(=O)Nc2ccc(CN3CCN(C)CC3)c(C(F)(F)F)c2)cc1C#Cc1c(N)ncc2ccccc12 [Compound 4] | 
99 | 90 |  |  |  | Cc1ccc(C(=O)Nc2ccc(CN3CCN(C)CC3)c(C(F)(F)F)c2)cc1C#Cc1c(N)ncc2ccc(F)cc12 [Compound 6] | 
98 | 98 | 6.9 ± 0.05 | 2.3 ± 0.1 | 10.4 ± 0.3 | Cc1ncc(C(=O)Nc2ccc(CN3CCN(C)CC3)c(C(F)(F)F)c2)cc1C#Cc1c(N)ncc2ccc(Cl)cc12 [Compound 9] | IC50 [5]: 0.4 ± 0.04 nM; IC50 ([5]; Homo sapiens, MV4-11, 72 h): ~0.5 nM
93 | 75 |  |  |  | Cc1cnc(C(=O)Nc2ccc(CN3CCN(C)CC3)c(C(F)(F)F)c2)cc1C#Cc1c(N)ncc2ccc(Cl)cc12 [Compound 10] | 
16 | 43 | ≤ 15 |  | ≤ 15 | Cc1ccc(C(=O)Nc2ccc(CN3CCN(C)CC3)c(C(F)(F)F)c2)nc1C#Cc1c(N)ncc2ccc(Cl)cc12 [Compound 11] | 
100 | 98 |  |  |  | Cc1ccc2cnc(N)c(C#Cc3cc(C(=O)Nc4ccc(CN5CCN(C)CC5)c(C(F)(F)F)c4)ccc3C)c2c1 [Compound 12] | 
98 | 100 | 1.1 ± 0.04 | 1.4 ± 0.03 | 4.7 ± 0.03 | Cc1ccc2cnc(N)c(C#Cc3cc(C(=O)Nc4ccc(CN5CCN(C)CC5)c(C(F)(F)F)c4)cnc3C)c2c1 [Compound 13] | IC50 ([5]; Homo sapiens, MV4-11, 72 h): 0.4 ± 0.006 nM
99 | 98 |  |  |  | COc1ccc2c(N)ncc(C#Cc3cc(C(=O)Nc4ccc(CN5CCN(C)CC5)c(C(F)(F)F)c4)cnc3C)c2c1 [Compound 14] | 
100 | 98 |  |  |  | Cc1ncc(C(=O)Nc2ccc(CN3CCN(C)CC3)c(C(F)(F)F)c2)cc1C#Cc1cnc(N)c2ccccc12 [Compound 16] | 
98 | 98 |  |  |  | Cc1ncc(C(=O)Nc2ccc(CN3CCN(C)CC3)c(C(F)(F)F)c2)cc1C#Cc1cnc(N)c2ccc(F)cc12 [Compound 17] | 
99 | 99 |  |  |  | Cc1ccc(C(=O)Nc2ccc(CN3CCN(C)CC3)c(C(F)(F)F)c2)cc1C#Cc1cncc2ncccc12 [Compound 23] | 
